Source: patent US5663175A, “Prodrugs of herpes TK inhibitors” (Merck & Co. Inc., priority 1994, dated 1997)

Target: herpes thymidine kinase (Human herpesvirus 1, UniProt P0DTH5)
Assay: Assay for inhibition of herpes thymidine kinase
Format: biochemical
Procedure: The assay mixture contains in a final volume of 110 microliters the following: 50 mM Tris-HCl, pH 7.5; 5 mM MgCl2; 5 mM ATP; 2 mM dithiothreitol (DTT); 2.5 mM KF; 0.25 mg/ml bovine serum albumin (BSA); […] thymidine labeled with either ^14 C or ^3 H; the compound being tested as inhibitor; and the viral thymidine kinase. The amount of enzyme, incubation time and temperature are adjusted so that no more than 20% of the substrate is converted to product in a reaction without inhibitor. At the end of the incubation period, 100 microliters of the assay mixture are spotted on a 25 mm disk of DEAE paper. The disks are washed three times with ethanol to remove unreacted thymidine and the amount of thymidine monophosphate produced is determined by scintillation counting of the disks. The results (in IC50) are calculated to give the concentration of inhibitor resulting in 50% inhibition of enzyme. The IC50 of L-58,340 is about 100 nM.

Sequence of herpes thymidine kinase (P0DTH5 whole entry): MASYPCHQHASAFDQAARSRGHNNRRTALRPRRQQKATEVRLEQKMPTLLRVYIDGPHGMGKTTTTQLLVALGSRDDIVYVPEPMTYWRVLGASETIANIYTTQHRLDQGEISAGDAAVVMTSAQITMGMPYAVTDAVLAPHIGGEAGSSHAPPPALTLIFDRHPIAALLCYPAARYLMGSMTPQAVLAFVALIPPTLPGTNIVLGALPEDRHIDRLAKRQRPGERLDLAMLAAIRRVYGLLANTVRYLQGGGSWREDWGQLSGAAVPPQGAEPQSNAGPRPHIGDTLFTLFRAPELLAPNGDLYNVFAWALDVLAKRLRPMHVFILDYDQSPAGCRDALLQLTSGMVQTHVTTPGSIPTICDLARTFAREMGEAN

- IC50 (2 mM labeled thymidine, 5 mM ATP, pH 7.5, read-out: IC50 (concentration of inhibitor resulting in 50% inhibition of enzyme)): ~100 nM
- activity as an inhibitor of herpes thymidine kinase relative to its enantiomer (compared with its enantiomer): substantially more active
- inhibition of herpes thymidine kinase (in words) (first principal finding): potent inhibitor
Compound: Nc1nc2c(ncn2C[C@H]2CCCC[C@H]2CO)c(=O)[nH]1 [L-758,340, 9-{[1(R)-hydroxymethyl-2(S)-cyclohexyl]methyl}guanine]
